What all share (type): physicochemical
The nature of data set [1]: Gravimetric Vapour Sorption (GVS) moisture sorption isotherm. The settings on record: over 0-90% RH range, 25° C. Here is the method: GVS data were collected using a SMS DVS Intrinsic moisture sorption analyser, controlled by DVS Intrinsic Control software v1.0.0.30. The sample temperature was maintained at 25° C. by the instrument controls. The humidity was controlled by mixing streams of dry and wet nitrogen, with a total flow rate of 200 ml/min The relative humidity was measured by a calibrated Rotronic probe (dynamic range of 1.0-100% RH), located near the sample. The weight change, (mass relaxation) of the sample as a function of % RH was constantly monitored by the microbalance (accuracy ±0.005 mg).
Typically 5-20 mg of sample was placed in a tared mesh stainless steel basket under ambient conditions. The sample was loaded and unloaded at 40% RH and 25° C. (typical room conditions). A moisture sorption isotherm was performed as outlined below (2 scans giving 1 complete cycle). The standard isotherm was performed at 25° C. at 10% RH intervals over a 0-90% RH range. Data analysis was undertaken in Microsoft Excel using DVS Analysis Suite v6.0.

Data set [2] is described as follows: XRPD analysis after heating at 150° C. Here is the method:
Polymorphic Form II of 1-(2-((((trans)-3-fluoro-1-(3-fluoropyridin-2-yl)cyclobutyl)methyl)amino)pyrimidin-5-yl)-1H-pyrrole-3-carboxamide was analyzed by XRPD, DSC, TGA, and GVS.

A short description of data set [3]: Competitive slurry experiments between Form I and Form V. The settings on record: XRPD. The method, then: For competitive slurry experiments, a mixture of Form I (˜10 mg) and Form V (˜10 mg) were suspended in 20 volumes of ethanol or methanol. Parallel maturation experiments were set up at a constant temperature, in the range of 4° C. to 60° C. for 9-12 days, the resulting solids (rapidly isolated by solvent decantation) were analyzed by XRPD. A mechanical mixture of Form I and Form V in equivalent weight was also analyzed by XRPD for reference. For the control experiments, slurries of Form I or Form V were subjected to the same conditions as in the competitive slurry experiments.
In an attempt to determine a transition temperature for the polymorph pair, a further four competitive slurry experiments were performed at a higher temperature range of 65-75° C. Using sealed vials, Form I (˜10 mg) and Form V (˜10 mg) were suspended in 20 volumes of ethanol or methanol and maturation continued for 2 days.

`NC(=O)c1ccn(-c2cnc(NC[C@]3(c4ncccc4F)C[C@H](F)C3)nc2)c1` [Form II, 1-(2-((((trans)-3-fluoro-1-(3-fluoropyridin-2-yl)cyclobutyl)methyl)amino)pyrimidin-5-yl)-1H-pyrrole-3-carboxamide]: the “moisture uptake as determined by GVS” value in data set [1] is “about 1.65%”. Besides, the “solid form by XRPD after heating” value in data set [2] is “converted to Form I”.
As for `NC(=O)c1ccn(-c2cnc(NC[C@]3(c4ncccc4F)C[C@H](F)C3)nc2)c1` [Form V, 1-(2-((((trans)-3-fluoro-1-(3-fluoropyridin-2-yl)cyclobutyl)methyl)amino)pyrimidin-5-yl)-1H-pyrrole-3-carboxamide], the “relative stability versus Form I (competitive slurry)” value in data set [3] (ethanol, 4° C. to 60° C., 9-12 days) was “more stable”; in data set [3] (ethanol, 65-75° C., 2 days, sealed vials) it was “more stable form”; in data set [3] (methanol, 4° C. to 60° C., 9-12 days), “more stable”. In data set [3] (methanol, 65° C., 2 days, sealed vials), the “solid form obtained from Form I/Form V competitive slurry” value is listed as “mixture of both forms”. Moreover, the “moisture uptake as determined by GVS” value in data set [1] is on record as “less than 0.05%”.

These data come from patent publication US20220315558A1, “POLYMORPHS OF 1-(2-((((TRANS)-3-FLUORO-1-(3-FLUOROPYRIDIN-2-YL)CYCLOBUTYL)METHYL)AMINO)PYRIMIDIN-5-YL)-1H-PYRROLE-3-CARBOXAMIDE” (Cytokinetics, Inc., priority 2019, published 2022).
